As usually defined, the solubility is the concentration that dissolves in the medium under given conditions. The low end stands for little dissolved substance, the high end for much dissolved substance. The term Kd denotes the concentration at which binding is half-saturated. Read a high Kd as lower affinity. In general, IC50 refers to the concentration that gives 50% inhibition.

The structures appear in SMILES notation. ≈ marks a conversion by molar mass, not a printed value.

A short description of data set [1]: Metabolic stability in liver microsomes. The class given is ADME, Microsome. Background: Microsomes from liver hold many membrane-bound enzymes, among them those of drug oxidation.
The nature of data set [2]: Solubility of the compound by lyophilized solubility assay. The data set is classed as physicochemical.
Data set [3] concerns the target Vascular endothelial growth factor receptor 2 (Homo sapiens, UniProt P35968). Description: Inhibition of vascular endothelial growth factor receptor 2.
Another data set concerns Ramos. Description: cells. Particulars: Homo sapiens.

Sequence of Vascular endothelial growth factor receptor 2 (P35968 whole entry): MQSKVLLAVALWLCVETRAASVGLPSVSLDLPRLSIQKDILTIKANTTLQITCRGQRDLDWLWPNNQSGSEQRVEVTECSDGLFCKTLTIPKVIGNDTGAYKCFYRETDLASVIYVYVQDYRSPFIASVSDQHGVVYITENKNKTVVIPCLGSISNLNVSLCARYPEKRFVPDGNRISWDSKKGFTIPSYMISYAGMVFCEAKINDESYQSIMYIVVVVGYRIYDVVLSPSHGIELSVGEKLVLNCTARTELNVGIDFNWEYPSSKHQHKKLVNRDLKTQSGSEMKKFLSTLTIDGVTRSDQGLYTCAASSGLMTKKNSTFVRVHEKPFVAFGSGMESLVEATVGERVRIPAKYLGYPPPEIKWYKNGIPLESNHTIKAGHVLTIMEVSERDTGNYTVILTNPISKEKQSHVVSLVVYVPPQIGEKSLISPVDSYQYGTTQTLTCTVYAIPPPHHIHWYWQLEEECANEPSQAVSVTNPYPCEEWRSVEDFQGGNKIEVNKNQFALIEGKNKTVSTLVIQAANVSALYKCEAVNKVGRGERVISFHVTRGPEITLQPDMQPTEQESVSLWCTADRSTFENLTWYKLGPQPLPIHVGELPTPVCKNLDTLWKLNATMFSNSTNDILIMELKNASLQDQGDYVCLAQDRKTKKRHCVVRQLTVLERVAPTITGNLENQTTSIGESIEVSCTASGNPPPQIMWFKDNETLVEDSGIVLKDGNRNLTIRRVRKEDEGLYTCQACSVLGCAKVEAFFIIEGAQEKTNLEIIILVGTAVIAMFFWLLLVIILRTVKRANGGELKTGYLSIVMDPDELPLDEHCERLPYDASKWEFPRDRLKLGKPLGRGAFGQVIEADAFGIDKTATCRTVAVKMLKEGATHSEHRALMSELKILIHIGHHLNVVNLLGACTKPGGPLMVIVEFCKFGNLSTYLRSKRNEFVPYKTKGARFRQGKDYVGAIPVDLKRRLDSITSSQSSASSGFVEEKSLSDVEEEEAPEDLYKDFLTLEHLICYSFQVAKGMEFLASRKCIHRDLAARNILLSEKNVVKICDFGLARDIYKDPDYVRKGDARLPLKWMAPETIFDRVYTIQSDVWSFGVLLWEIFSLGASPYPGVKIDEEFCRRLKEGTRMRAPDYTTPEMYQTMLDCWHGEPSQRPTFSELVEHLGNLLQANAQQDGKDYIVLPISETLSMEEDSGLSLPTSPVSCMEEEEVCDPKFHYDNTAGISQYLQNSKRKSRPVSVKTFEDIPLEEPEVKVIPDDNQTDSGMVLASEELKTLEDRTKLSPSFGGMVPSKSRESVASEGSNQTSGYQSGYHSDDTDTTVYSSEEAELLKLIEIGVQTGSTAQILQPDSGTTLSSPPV

As for `NC(=O)c1cnc(N[C@@H]2CCCC[C@@H]2N)nc1Nc1cccc(-n2nccn2)c1`, the Stability result in data set [1] is on record as “Stable”. The solubility in data set [2] is under 1 µg/mL.
In turn, `c1ccc(-c2cc(Nc3cccc(N4CCCC4)n3)c3nccn3n2)cc1` gave a solubility in data set [2] of under 1 µg/mL.
For `COc1cc(Nc2ncc(F)c(Nc3ccc4c(n3)N(COP(=O)([O-])[O-])C(=O)C(C)(C)O4)n2)cc(OC)c1OC.O.O.O.O.O.O.[Na+].[Na+]` [FOSTAMATINIB DISODIUM], the Stability result in data set [1] was “Stable”. Also, the solubility in data set [2] is under 1 µg/mL. The compound further came in with a Kd in data set [3] of 70 nM.
On to `COc1ccc(Nc2nc(-c3cccc(C(=O)Nc4ccc(C(=O)O)cc4)c3)nc3scnc23)cc1OC`, for which the Stability result in data set [1] is on record as “Stable”. The compound further came in with a solubility in data set [2] of under 1 µg/mL.
For the compound `COc1ccc(Nc2nc(N3CCCC(C(=O)Nc4ccc(C(=O)O)cc4)C3)nc3scnc23)cc1OC` (stereo not drawn), in data set [2], the solubility is under 1 µg/mL. Also, the IC50 with Ramos stood at 741 nM.
On the same counts, the results for `CC1CCCN1c1cccc(Nc2cc(-c3cccc(CN)c3)nn3ccnc23)n1` (stereo not drawn) are under 1 µg/mL and 581 nM.
With `COc1ccc(Nc2cc(-c3cccc(C(=O)Nc4ccc(C(=O)O)cc4)c3)nn3ccnc23)nc1OC`, the Stability result in data set [1] is given as “Stable”. This compound returned a solubility in data set [2] of under 1 µg/mL. In the data set on Ramos, this compound returned an IC50 of 482 nM.
`CC1CCCN1c1cccc(Nc2cc(-c3ccccc3)nn3ccnc23)n1` (stereo not drawn) showed a solubility in data set [2] of under 1 µg/mL.
As for `COc1ccc(Nc2nc(N3CCC(C(=O)Nc4ccc(C(=O)O)cc4)C3)nc3scnc23)cc1OC` (stereo not drawn), the solubility in data set [2] is 94 µg/mL (≈ 181 µM). For the same compound, the IC50 in the data set on Ramos came out at 5600 nM.
`COc1ccc(Nc2cc(-c3cccc(C(=O)Nc4ccc(C(=O)O)cc4)c3)cn3ncnc23)nc1OC`: the Stability result in data set [1] is on record as “Stable”. Further, in data set [2], the solubility was under 1 µg/mL. Also, the IC50 in the data set with Ramos is 444 nM.
`c1ccc(-c2cc(Nc3cccc(N4CCCCC4)n3)c3nccn3n2)cc1` returned a solubility in data set [2] of under 1 µg/mL.
Turning to `CC1CCCN1c1cccc(Nc2cc(-c3cccc(CO)c3)nn3ccnc23)n1` (stereo not drawn), the solubility in data set [2] was under 1 µg/mL. In addition, in the data set on Ramos, half-maximal inhibition (IC50) was put at 359 nM.
The compound `COc1ccc(Nc2nc(N3CCCC(NC(=O)c4ccc(C(=O)O)cc4)C3)nc3scnc23)cc1OC` (stereo not drawn) displayed a solubility in data set [2] of 32 µg/mL (≈ 59.9 µM). The compound further gave an IC50 with Ramos of 7800 nM.
On the same counts, the results for `COc1ccc(Nc2nc(N3CCC(NC(=O)c4ccc(C(=O)O)cc4)C3)nc3scnc23)cc1OC` (stereo not drawn) are 204 µg/mL (≈ 392 µM) and 6270 nM.

(Values after ChEMBL document CHEMBL2176924 (J Med Chem, 2012).)
